# Data published in US6677354B2, “Piperdines for use as orexin receptor antagonists” (SmithKline Beecham p.l.c., priority 2000, dated 2004).
# Tests used:
# [1] = system: food intake in freely-feeding rats; conditions: central administration, 4 hour time period; cited from earlier work
# orexin receptors = assay: Rat sleep/EEG studies after central administration; format: in vivo; conditions: central administration at the onset of the normal sleep period
# Source text: Therefore antagonists of its receptor may be useful in the treatment of sleep disorders including insomnia.
substance,measurement,setting,value
"orexin-A: ""orexin-A, an agonist of the orexin receptors""; ""Human orexin-A has the amino acid sequence: pyroGlu Pro Leu Pro Asp Cys Cys Arg Gln Lys Thr Cys...""",increase in food intake over control rats receiving vehicle,[1],approximately four-fold
same,effect on arousal and sleep,orexin receptors,dose-related increase in arousal
